Measured values taken from article PMC6143625, “A high throughput screen for next-generation leads targeting malaria parasite transmission” (Nature Communications, 2018).

How the values were obtained:
[1] = system: P. falciparum stage V male gametocytes (male gamete formation); test: P. falciparum dual gamete formation assay (Pf DGFA), male readout (exflagellation), 48 h carry-over format; type: cell-based, Plasmodium falciparum NF54; conditions: Plasmodium falciparum, 48 h incubation; for IC50: 48 h, dose response retest of primary hits, read-out: Male IC50; for inhibition at 2 µM: primary screen, single replicate
[2] = system: P. falciparum 3D7 asexual blood stages; test: Whole-cell time extended asexual growth assay (pLDH); type: cell-based; conditions: Plasmodium falciparum, 72 h; for IC50: dose response retest, read-out: IC50 (µM) Asex stages; for inhibition at 2 µM: primary screen, read-out: %Inh Asex stages @2uM
Method: Asexual activity was assayed via Plasmodium lactate dehydrogenase activity (pLDH), a surrogate of asexual parasite growth. […] 2 µM artesunate and DMSO were used as the positive and negative controls, respectively. […] After plate mixing, NBT reduction was measured by absorbance at 650 nm using Envision (Perkin Elmer).

HepG2 human cells = system: HepG2 human cells; set-up: method as in http://dx.doi.org/10.6019/CHEMBL3507680; conditions: ref http://dx.doi.org/10.6019/CHEMBL3507680; cited from earlier work
[3] = system: P. falciparum stage V female gametocytes (female gamete formation); test: P. falciparum dual gamete formation assay (Pf DGFA), female readout (Pfs25 expression), 48 h carry-over format; type: cell-based, Plasmodium falciparum NF54; conditions: Plasmodium falciparum, 48 h incubation; for IC50: 48 h, dose response retest of primary hits, read-out: Female IC50; for inhibition at 2 µM: primary screen, single replicate

| IC50 [1] [nM] | IC50 [2] [µM] | IC50 [3] [nM] | SMILES | inhibition at 2 µM [1] [%] | inhibition at 2 µM [2] [%] | %Inh HepG2 @10uM (HepG2 human cells) [%] | inhibition at 2 µM [3] [%] |
| --- | --- | --- | --- | --- | --- | --- | --- |
| 1240 | 0.298 | 5560 | COc1ccc(NC(=O)Cn2nc(C)c(C(C)=O)c2C)cc1 [DDD01027600] | 47.3 | 73.1 | 2.67 | < 30 |
| – | 1.4 | – | CC(C)Cc1ncc2c(n1)CN(c1nccc(NC(C)C)n1)C2 [DDD01249567] | – | 92.8 | 2.52 | – |
| – | 3.82 | – | Cc1cccc2[nH]c(-c3cn(C4CCNCC4)nn3)nc12 [DDD01250141] | – | 34.6 | -3.11 | – |
| – | 5.78 | – | CCCc1nc(N(C)CCN2CCCCCC2)c2cnn(C)c2n1 [DDD01250696] | – | 32.1 | -11.00 | – |
| – | 1.35 | – | Cc1cnccc1NCCNC1CCN(CC(C)C)CC1 [DDD01251125] | – | 98.4 | 2.02 | – |
| – | 1.97 | – | Cc1nc(-c2cc(Cl)cc3c2OC(CN)C3)c[nH]1 (centres unmarked) [DDD01251343] | – | 52.6 | 11.09 | – |
| – | 1.78 | – | CCc1[nH]c2c(CNc3nc(C)cc(NC)n3)cc(C)cc2c1C [DDD01251782] | – | 97.5 | 99.91 | – |
| – | 2.46 | – | O=C(NCc1cnn2cccnc12)c1cccc(CC2CCNCC2)c1 [DDD01252275] | – | 33 | 5.06 | – |
| – | 1.71 | – | Cc1cccnc1C(Nc1nccc(C2CCCC2)n1)C1CC1 (centres unmarked) [DDD01252324] | – | 73.4 | 0.36 | – |
| 1120 | 1.73 | 3620 | NCC1CCN(C2CCN(c3ccc(-c4ccco4)cc3)CC2)C1 (centres unmarked) [DDD01252361] | 94.8 | 68.3 | 101.96 | 64 |
| – | 5.59 | – | COc1cccc(OC)c1CN1CC(=O)N(c2ccc(C)cc2)CC1C (centres unmarked) [DDD01252418] | – | 31.8 | 1.44 | – |
| – | 3.07 | – | CCOc1cccc(CN2CCCC(Nc3ccc(F)cc3)C2)c1O (centres unmarked) [DDD01252745] | – | 42.7 | -6.06 | – |
| – | 2.61 | – | CNc1cc(C)nc(N2Cc3cnn(Cc4ccc(F)cc4)c3C2)n1 [DDD01252874] | – | 45.8 | 11.36 | – |
| – | 4.44 | – | Cc1nc(NCCSc2ccccn2)c2c(C)noc2n1 [DDD01253053] | – | 38.4 | -4.96 | – |
| – | 4.81 | – | NCC1Cc2cc(-c3nccc(N4CCC(O)CC4)n3)cc(F)c2O1 (centres unmarked) [DDD01254054] | – | 76.3 | 6.33 | – |
| – | 2.43 | – | CCCc1cncnc1N1CCC(NCc2cc3ccccc3[nH]2)CC1 [DDD01254125] | – | 35.4 | 8.09 | – |
| – | 1.97 | – | CNc1nc(C)cc(NC2CCCN(C3Cc4ccccc4C3)C2)n1 (centres unmarked) [DDD01254555] | – | 91.2 | 14.91 | – |
| – | 2.56 | – | Cc1noc(C)c1CN(C)c1nc(C2CCCC2)nc2c1cnn2C [DDD01254835] | – | 57.1 | 9.62 | – |
| – | 6.64 | – | CNC(=O)c1cn2cc(-c3ccccc3Cl)n(CC=C(C)C)c(=O)c2n1 [DDD01255495] | – | 43.8 | 35.09 | – |
| – | 3.29 | – | Cc1cnc(C)c(N2CCN(CCCc3ccncc3)CC2)n1 [DDD01256723] | – | 48 | 6.37 | – |

| IC50 [1] [nM] | IC50 [2] [µM] | IC50 [3] [nM] | SMILES | inhibition at 2 µM [1] [%] | inhibition at 2 µM [2] [%] | %Inh HepG2 @10uM (HepG2 human cells) [%] | inhibition at 2 µM [3] [%] |
| --- | --- | --- | --- | --- | --- | --- | --- |
| – | 2.73 | – | NCC(=O)N1CCCC1c1ccc(C(=O)NCc2ccoc2)s1 (centres unmarked) [DDD01257217] | – | 34.1 | -2.34 | – |
| – | 5.38 | – | CSCCNC(=O)c1ccc(OC2CCN(CC(C)(C)C)CC2)c(Cl)c1 [DDD01257510] | – | 38.4 | -7.80 | – |
| – | 2.44 | – | Cc1nc[nH]c1CN(C)CC1CCCN(CCc2ccc(Cl)cc2)C1 (centres unmarked) [DDD01257555] | – | 66.5 | 20.49 | – |
| – | 2.56 | – | COc1cccc(CN2CCCC(Nc3cccc(F)c3)C2)c1O (centres unmarked) [DDD01257695] | – | 55.2 | -4.92 | – |
| – | 1.79 | – | CN(Cc1cccc(O)c1)CC1CCCN(CCc2ccc(Cl)cc2)C1 (centres unmarked) [DDD01257948] | – | 92.9 | 10.17 | – |
| – | 2.83 | – | CCC1CN(C(=O)c2ccc(Cl)cc2O)CCN1C(C)C (centres unmarked) [DDD01258121] | – | 48.6 | -6.93 | – |
| – | 6.27 | – | CCc1c(C)nc2cc(C3CCN(Cc4ccccc4F)C3)nn2c1O (centres unmarked) [DDD01270117] | – | 43.5 | -2.56 | – |
| – | 1.27 | – | Cc1cc(C)n(C2CN(CC(O)c3cc(F)ccc3F)C2)n1 (centres unmarked) [DDD01298957] | – | 74.5 | 6.16 | – |
| – | 2.86 | – | CCNC(=O)C(C)NC(=O)c1cnc(-c2ccc(C)cc2C)s1 (centres unmarked) [DDD01300473] | – | 37 | 1.57 | – |
| – | 8.56 | – | Cc1nc2ccccc2nc1CN1CCCC1Cn1cccn1 (centres unmarked) [DDD01301355] | – | 31 | 20.57 | – |
| – | 5.73 | – | CN(Cc1ncc(C(C)(C)C)o1)CC1CCCN1c1cccnn1 (centres unmarked) [DDD01301524] | – | 31.2 | 23.44 | – |
| – | 4.02 | – | CC(C)c1cc(NC(=O)c2ccc(C(=O)NC(C)(C)C)cc2)[nH]n1 [DDD01301645] | – | 33.2 | -4.05 | – |
| – | 6.7 | – | CCC(C)(C)NC(=O)CN(C)C(c1cccc(F)c1)c1ccccn1 (centres unmarked) [DDD01301778] | – | 30.8 | 0.64 | – |
| – | 3.83 | – | Cc1ccc(Cl)cc1N1CCC(CNC(=O)CCn2ccnc2)C1 (centres unmarked) [DDD01302767] | – | 33.8 | -10.10 | – |
| – | 2.69 | – | COc1ccc(CNCC2CCN(CC(C)O)CC2)c2ccccc12 (centres unmarked) [DDD01302860] | – | 39.2 | 29.84 | – |
| – | 7.81 | – | Cc1cc(C)n(C2CN(CC(O)c3ccc4c(c3)OCO4)C2)n1 (centres unmarked) [DDD01303662] | – | 40.2 | -2.16 | – |
| – | 3.62 | – | CC(C)c1nn(C)c(Cl)c1CNCC(O)c1cccc(F)c1.Cl (centres unmarked) [DDD01304823] | – | 34.2 | -10.30 | – |
| – | 3.93 | – | Cc1nc(CN2CCCC(N(C)Cc3c(C)noc3C)C2)no1 (centres unmarked) [DDD01304956] | – | 31.2 | 10.61 | – |
| – | 6.03 | – | O=C1CCCCN1c1cccc(CNC2CCCC2)c1 [DDD01305031] | – | 31.2 | -17.90 | – |

| SMILES | IC50 [1] [nM] | IC50 [2] [µM] | IC50 [3] [nM] | inhibition at 2 µM [1] [%] | inhibition at 2 µM [2] [%] | %Inh HepG2 @10uM (HepG2 human cells) [%] | inhibition at 2 µM [3] [%] |
| --- | --- | --- | --- | --- | --- | --- | --- |
| CCc1[nH]c2c(CNc3cc(C)nc(NC)n3)cc(C)cc2c1C [DDD01250162] | – | 1.2 | – | – | 55.3 | 98.31 | – |
| Cc1cc2nc(-c3cn(C4CCNCC4)nn3)[nH]c2cc1C [DDD01250700] | – | 2.49 | – | – | 60.9 | -2.26 | – |
